Drawing on publication PMC12457685 (Scientific Reports, 2025), this text covers Kd, kon and ka for two molecules.

“And” between values parts separate entries of the source, which are not always exact repeats. Equal values may be shown once. Non-standard residues stand in square brackets, D forms with d. Residues, ends and D or L forms follow the SMILES beside them. Pra = C#CC[C@H](N)C(=O)O

For one experiment, the target named is SARS-CoV-2 Alpha RBD (Severe acute respiratory syndrome coronavirus 2, UniProt P0DTC2). The experiment is described as follows: biochemical. The class given is binding.
The target in the next experiment is SARS-CoV-1 RBD (Severe acute respiratory syndrome coronavirus, UniProt P59594). In words: biochemical. The class given is binding.
Experiment [1] addresses SARS-CoV-1 spike RBD RBD (Severe acute respiratory syndrome coronavirus), P59594. The experiment is described as follows: SPR. The following applies: modification not given.

For the molecule `C#CC[C@H](NC(=O)[C@H](CC(C)C)NC(=O)[C@H](CCCCN)NC(=O)[C@@H](NC(=O)[C@@H](NC(=O)[C@H](CC(C)C)NC(=O)[C@H](CC(N)=O)NC(=O)[C@H](Cc1ccc(O)cc1)NC(=O)[C@@H](NC(=O)[C@H](CCC(=O)O)NC(=O)[C@H](Cc1ccc(O)cc1)NC(=O)[C@H](CC(C)C)NC(=O)[C@@H]1CCCN1C(=O)[C@H](Cc1ccc(O)cc1)NC(=O)[C@H](CCSC)NC(=O)[C@H](CCC(N)=O)NC(=O)[C@H](C)NC(=O)[C@H](CC(C)C)NC(=O)[C@@H](NC(=O)[C@H](CO)NC(=O)[C@@H](N)CCC(N)=O)[C@@H](C)O)[C@@H](C)CC)[C@@H](C)O)C(C)C)C(N)=O` [a2] (H-QSTLAQMYPLYEIYNLTVKL[Pra]-NH2), the Kd at SARS-CoV-2 Alpha RBD was determined as 89 ± 5 nM; at SARS-CoV-1 RBD it was 21 ± 5 nM. Besides, the results for the kon on SARS-CoV-2 Alpha RBD (read-out: ka) and on SARS-CoV-1 RBD (read-out: ka) were 59300 M⁻¹ s⁻¹ and 85900 M⁻¹ s⁻¹, respectively. Also, the ka at SARS-CoV-2 Alpha RBD (spr) was 5,66e4 M-1s-1 and 6,08e4 M-1s-1.
In the case of QSTLAQMYPLYEIYNLTVKL [ACE2 epitope a2], the Kd in experiment [1] stood at 21 nM.
